Experimental data reported in patent US20250059164A1, “IRAK DEGRADERS AND USES THEREOF” (Kymera Therapeutics, Inc., priority 2023, published 2025).

Assays:
IRAK4 = target: T1, IRAK4 (Homo sapiens, UniProt Q9NWZ3); experiment: IRAK4 MSD degradation in OCI-LY10; format: cell-based; conditions: OCI-LY10 cells, 24 hrs, Meso Scale Discovery
T1 construct: endogenous in cells; host or cells: OCI-LY10
T1 sequence (Q9NWZ3 1-460): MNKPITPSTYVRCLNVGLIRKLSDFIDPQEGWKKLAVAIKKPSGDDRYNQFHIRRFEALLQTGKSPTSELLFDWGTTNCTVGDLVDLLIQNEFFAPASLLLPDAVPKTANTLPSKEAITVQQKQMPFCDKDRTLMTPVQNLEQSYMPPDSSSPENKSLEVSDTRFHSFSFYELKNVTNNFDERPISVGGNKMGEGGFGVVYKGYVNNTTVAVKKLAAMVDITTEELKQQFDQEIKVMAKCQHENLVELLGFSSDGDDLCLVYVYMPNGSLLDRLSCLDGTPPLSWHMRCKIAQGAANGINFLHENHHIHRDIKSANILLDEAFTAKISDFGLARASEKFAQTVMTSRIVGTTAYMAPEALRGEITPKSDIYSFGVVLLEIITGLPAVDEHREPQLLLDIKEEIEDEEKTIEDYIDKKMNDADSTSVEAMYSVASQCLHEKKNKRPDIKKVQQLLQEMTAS
In short: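 Remaining IRAK4 protein measured by Meso Scale Discovery electrochemiluminescence sandwich assay on lysates of OCI-LY10 cells. Cells were exposed for 4 to 24 hours (37° C., 5% CO2) to eight 1:3-diluted concentrations starting at 1 to 10 μM. DC50 derived by three-parameter logistic fitting.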

[1] = Rodent pharmacokinetics (rat PK); format: in vivo; conditions: po, dosed intravenously or orally by gavage, plasma, read-out: F % (bioavailability)
Protocol: All studies related to handling, care, and treatment of rats in the study were performed according to the guidelines approved by the Institutional Animal Care and Use Committee (IACUC). All rats had access to food and water ad libitum. Rats were dosed intravenously or orally by gavage. Whole blood was collected from the jugular vein immediately prior to dosing and at 5 (intravenously administered drugs only), 15, and 30 min and 1, 2, 4, 8, and 24 h after drug administration. After sampling, whole blood was centrifuged at 4,000×g for 5 min at 4° C. to obtain plasma.
The letter codes for bioavailability (F %) include: A (≥5%) and B (≤5%).

Structure (SMILES)	DC50 (IRAK4) [nM]	bioavailability [1] [%]
COc1cc2nn([C@H]3CC[C@H](CN4CC[C@@H](c5cccc6c(C7CCC(=O)NC7=O)nn(C)c56)[C@H](F)C4)CC3)cc2cc1NC(=O)c1cncc(C#N)c1 (single isomer, unassigned) [I-263]	< 10	≤ 5
COc1cc2nn([C@H]3CC[C@H](CN4CC[C@H](c5cccc6c(C7CCC(=O)NC7=O)nn(C)c56)[C@@H](F)C4)CC3)cc2cc1NC(=O)c1cncc(C#N)c1 (single isomer, unassigned) [I-264]	< 10	≤ 5
COc1cc2nn([C@H]3CC[C@H](CN4CC[C@H](c5cccc6c5c(C)nn6C5CCC(=O)NC5=O)[C@@H](F)C4)CC3)cc2cc1NC(=O)c1cncc(C#N)c1 (single isomer, unassigned) [I-266]	< 10	≤ 5
COc1cc2nc([C@H]3CC[C@H](CN4CC[C@@H](c5cccc6c5n(C)c(=O)n6C5CCC(=O)NC5=O)C(F)(F)C4)CC3)sc2cc1NC(=O)c1cncc(C#N)c1 (single isomer, unassigned) [I-273]	> 200	≤ 5
CN(C[C@H]1CC[C@H](n2cc(NC(=O)c3cnn4cccnc34)c(C(F)F)n2)CC1)[C@@H]1CCN(c2cccc3c2n(C)c(=O)n3C2CCC(=O)NC2=O)C[C@H]1F (single isomer, unassigned) [I-279]	< 10	≥ 5
CN(C[C@H]1CC[C@H](n2cc(NC(=O)c3cnn4cccnc34)c(C(F)F)n2)CC1)[C@H]1CCN(c2cccc3c2n(C)c(=O)n3C2CCC(=O)NC2=O)C[C@@H]1F (single isomer, unassigned) [I-280]	< 10	≥ 5
CN(C[C@H]1CC[C@H](n2cc(NC(=O)c3cnn4cccnc34)c(C(F)F)n2)CC1)[C@@H]1CCN(c2cccc3c2n(C)c(=O)n3C2CCC(=O)NC2=O)C[C@@H]1F (single isomer, unassigned) [I-281]	< 10	≥ 5
CN(C[C@H]1CC[C@H](c2cn3cc(NC(=O)c4cncc(C(F)(F)F)n4)ccc3n2)CC1)[C@@H]1CCN(c2cccc3c2n(C)c(=O)n3C2CCC(=O)NC2=O)C[C@H]1F (single isomer, unassigned) [I-293]	10 to 100	≤ 5
CN(C[C@H]1CC[C@H](c2cn3cc(NC(=O)c4cncc(C(F)(F)F)n4)ccc3n2)CC1)[C@H]1CCN(c2cccc3c2n(C)c(=O)n3C2CCC(=O)NC2=O)C[C@@H]1F (single isomer, unassigned) [I-294]	< 10	≤ 5
CN(C[C@H]1CC[C@H](c2nc3cc(C(C)(C)O)c(NC(=O)c4cncc(C(F)(F)F)n4)cc3o2)CC1)[C@@H]1CCN(c2cccc3c2n(C)c(=O)n3C2CCC(=O)NC2=O)C[C@H]1F (single isomer, unassigned) [I-297]	10 to 100	≥ 5
COc1cn2nc([C@H]3CC[C@H](CN(C)[C@@H]4CCN(c5cccc6c5n(C)c(=O)n6C5CCC(=O)NC5=O)C[C@@H]4F)CC3)cc2cc1NC(=O)c1cncc(C(F)(F)F)n1 (single isomer, unassigned) [I-302]	< 10	≤ 5
Cn1c(=O)n(C2CCC(=O)NC2=O)c2cccc(C#CCN3CCN(C[C@H]4CC[C@H](n5cc(NC(=O)c6cnn7ccc(N8C[C@H]9C[C@@H]8CO9)nc67)c(C(F)F)n5)CC4)C[C@H]3C(F)(F)F)c21 (single isomer, unassigned) [I-304]	10 to 100	≥ 5
CN(C[C@H]1CC[C@H](c2nc3cc(C(C)(C)O)c(NC(=O)c4cncc(C(F)(F)F)n4)cc3s2)CC1)[C@@H]1CCN(c2cccc3c2n(C)c(=O)n3C2CCC(=O)NC2=O)C[C@@H]1F (single isomer, unassigned) [I-309]	< 10	≥ 5
Cn1c(=O)n(C2CCC(=O)NC2=O)c2cccc(N3CCN(C[C@H]4CC[C@H](n5cc6cc(NC(=O)c7cncc(C(F)(F)F)n7)ccc6n5)CC4)C[C@@H]3C(F)(F)F)c21 (single isomer, unassigned) [I-313]	< 10	≥ 5
COc1cc2nc([C@H]3CC[C@H](CN(C)[C@@H]4CCN(c5cccc6c5n(C)c(=O)n6C5CCC(=O)NC5=O)C[C@@H]4F)CC3)cn2cc1NC(=O)c1cncc(C(F)(F)F)n1 (single isomer, unassigned) [I-319]	< 10	≤ 5
Cn1c(=O)n(C2CCC(=O)NC2=O)c2cccc([C@@H]3CCN(C[C@H]4CC[C@H](n5cc(NC(=O)c6cnn7ccc(N8C[C@H]9C[C@@H]8CO9)nc67)c(C(F)F)n5)CC4)C[C@H]3F)c21 (single isomer, unassigned) [I-329]	< 10	≤ 5

Structure (SMILES)	DC50 (IRAK4) [nM]	bioavailability [1] [%]
Cn1c(=O)n(C2CCC(=O)NC2=O)c2cccc([C@H]3CCN(C[C@H]4CC[C@H](n5cc(NC(=O)c6cnn7ccc(N8C[C@H]9C[C@@H]8CO9)nc67)c(C(F)F)n5)CC4)C[C@@H]3F)c21 (single isomer, unassigned) [I-330]	< 10	≤ 5
Cn1c(=O)n(C2CCC(=O)NC2=O)c2cccc([C@@H]3CCN(C[C@H]4CC[C@H](n5cc(NC(=O)c6cnn7ccc(N8C[C@H]9C[C@@H]8CO9)nc67)c(C(F)F)n5)CC4)CC3(F)F)c21 (single isomer, unassigned) [I-331]	< 10	≤ 5
Cn1c(=O)n(C2CCC(=O)NC2=O)c2cccc([C@H]3CCN(C[C@H]4CC[C@H](n5cc(NC(=O)c6cnn7ccc(N8C[C@H]9C[C@@H]8CO9)nc67)c(C(F)F)n5)CC4)CC3(F)F)c21 (single isomer, unassigned) [I-332]	< 10	≤ 5
Cc1nn(C2CCC(=O)NC2=O)c2cccc([C@@H]3CCN(C[C@H]4CC[C@H](n5cc6cc(NC(=O)c7cncc(C(F)(F)F)n7)ncc6n5)CC4)C[C@H]3F)c12 (single isomer, unassigned) [I-340]	10 to 100	≥ 5
Cn1c(=O)n(C2CCC(=O)NC2=O)c2ccc(F)c([C@@H]3CCN(C[C@H]4CC[C@H](n5cc6cc(NC(=O)c7cncc(C(F)(F)F)n7)ccc6n5)CC4)C[C@H]3F)c21 (single isomer, unassigned) [I-348]	< 10	≥ 5
Cn1c(=O)n(C2CCC(=O)NC2=O)c2ccc(F)c([C@H]3CCN(C[C@H]4CC[C@H](n5cc6cc(NC(=O)c7cncc(C(F)(F)F)n7)ccc6n5)CC4)C[C@@H]3F)c21 (single isomer, unassigned) [I-353]	10 to 100	≥ 5
O=C1CCC(n2c(=O)oc3c([C@@H]4CCN(C[C@H]5CC[C@H](n6cc7cc(NC(=O)c8cncc(C(F)(F)F)n8)ccc7n6)CC5)C[C@H]4F)cccc32)C(=O)N1 (single isomer, unassigned) [I-357]	< 10	≤ 5
O=C1CCC(n2c(=O)oc3c([C@H]4CCN(C[C@H]5CC[C@H](n6cc7cc(NC(=O)c8cncc(C(F)(F)F)n8)ccc7n6)CC5)C[C@@H]4F)cccc32)C(=O)N1 (single isomer, unassigned) [I-360]	> 200	≤ 5
Cn1nc(C2CCC(=O)NC2=O)c2cccc([C@@H]3CCN(C[C@H]4CC[C@H](n5cc6cc(NC(=O)c7cncc(C#N)c7)c(C(C)(C)O)cc6n5)CC4)C[C@H]3F)c21 (single isomer, unassigned) [I-362]	< 10	≥ 5
Cn1nc(C2CCC(=O)NC2=O)c2cccc([C@H]3CCN(C[C@H]4CC[C@H](n5cc6cc(NC(=O)c7cncc(C#N)c7)c(C(C)(C)O)cc6n5)CC4)C[C@@H]3F)c21 (single isomer, unassigned) [I-363]	< 10	≥ 5
Cn1nc(C2CCC(=O)NC2=O)c2cccc([C@@H]3CCN(C[C@H]4CC[C@H](n5cc6cc(NC(=O)c7cncc(C(F)(F)F)n7)ncc6n5)CC4)C[C@H]3F)c21 (single isomer, unassigned) [I-370]	< 10	≥ 5
Cc1nn(C2CCC(=O)NC2=O)c2cccc([C@@H]3CCN(C[C@H]4CC[C@H](n5cc6cc(NC(=O)c7cncc(C(F)(F)F)n7)ccc6n5)CC4)CC3(F)F)c12 (single isomer, unassigned) [I-371]	10 to 100	≥ 5
Cc1nn(C2CCC(=O)NC2=O)c2cccc([C@H]3CCN(C[C@H]4CC[C@H](n5cc6cc(NC(=O)c7cncc(C(F)(F)F)n7)ccc6n5)CC4)CC3(F)F)c12 (single isomer, unassigned) [I-372]	10 to 100	≥ 5
Cn1c(=O)n(C2CCC(=O)NC2=O)c2ccc(F)c([C@H]3CCN(C[C@H]4CC[C@H](n5cc6cc(NC(=O)c7cncc(C#N)c7)c(C(C)(C)O)cc6n5)CC4)CC3(F)F)c21 (single isomer, unassigned) [I-383]	< 10	≤ 5
Cn1c(=O)n(C2CCC(=O)NC2=O)c2cccc([C@@H]3CCN(C[C@H]4CC[C@H](n5cc6cc(NC(=O)c7cncc(C#N)c7)c(C(C)(C)O)cc6n5)CC4)CC3(F)F)c21 (single isomer, unassigned) [I-389]	< 10	≤ 5
